Assays:
[1] = biological target: T1, VEGFR-2 (Homo sapiens, UniProt P35968); experiment: VEGF-165 induced phosphorylation of VEGF-Receptor on HUVEC; type: cell-based; conditions: HUVEC preincubated 60 min, VEGF165 25 ng/mL 2 min; read-out: VEGFR-Phosphorylation inhibition IC50
T1 construct: endogenous in cells; host or cells: primary HUVEC
Protocol: Cell culture: Primary human umbilical vein endothelial cells (HUVECs) were routinely cultured in 0.1% gelatin pre-coated flasks or dishes, up to passage 6. […]
Rabbit primary antibodies for VEGFR-2, p-Tyr1175 were acquired from Cell Signaling Technology (Leiden, The Netherlands). Phospho-VEGFR-2 (Tyr1175) Sandwich ELISA Kit was from Cell Signaling Technology.
[…] Western blot analysis was performed using anti-phospho-VEGFR-2 antibody and total VEGFR-2 was used as a loading control after membrane stripping.
Inhibition of VEGFR-2-phosphorylation results are expressed as IC50 in microM [μM] versus VEGF-treated HUVECs control without inhibitory compound.

[2] = tested on: Human neutrophils; experiment: Neutrophil adhesion under static conditions; type: cell-based; conditions: fMLP-stimulated adhesion to fibrinogen; method: 40 μM and 80 μM, concentration of the value not stated
Protocol: Human neutrophils obtained from buffy coats of healthy donors were suspended at 3×10^6/ml in adhesion buffer (PBS containing 1 mM CaCl2)/MgCl2 and 10% FCS, pH 7.2). Neutrophils were preincubated for 30 min at 37° C. with 40 μM and 80 μM of the compounds.
Adhesion assays were performed on 18-well glass slides coated for 18 h at 4° C. with human fibrinogen (20 μg/well in endotoxin-free PBS); 20 μl of cell suspension were added to each well and stimulated for 1 min at 37° C. with 5 μl of fMLP 1 nM final concentration. After washing, adherent cells were fixed in glutaraldehyde 1.5% in PBS and counted by computer-assisted enumeration. Statistical analysis was performed by calculating mean and standard deviation (SD); significance was calculated by unpaired t-test. All statistical analyses were performed using GraphPad Prism 6 (GraphPad Software).

[3] = biological target: T2, FGF-1 (Homo sapiens, UniProt P05230); experiment: FGF-1 induced sprouting of HUVEC, spheroid-based cellular angiogenesis assay; type: cell-based; conditions: FGF-1 25 ng/mL preincubated with compound, 24 h
T2 construct: purchased Peprotech 100-17A
T2 sequence (P05230 whole entry): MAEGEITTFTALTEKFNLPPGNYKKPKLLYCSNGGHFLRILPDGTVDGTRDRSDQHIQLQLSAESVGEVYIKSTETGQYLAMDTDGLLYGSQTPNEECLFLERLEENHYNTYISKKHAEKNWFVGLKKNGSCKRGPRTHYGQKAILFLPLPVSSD
Protocol: (§1) Aim of this in vitro method is to assess compounds effects on FGF-2, FGF-1, or VEGF-A induced sprouting of human umbilical vein endothelial cells (HUVEC) in the spheroid-based cellular angiogenesis assay. Before adding the growth factors to the cells, they were preincubated with the compound. Sunitinib was tested as a control (without preincubation).
(§2) IC50 values determined for the tested compounds are expressed in microM [μM] and the values for the inhibition of FGF-1, FGF2 and VEGF-A induced growth (sprouting) are listed after each compound in the examples after chemical characterization.
(§3) Sprouting test was performed on the compounds dissolved in DMSO to reach 100-fold concentrated stock solutions and dissolved in culture media. Sunitinib as reference compound was provided by ProQinase GmbH. Growth factors were purchased from rhFGF-basic (FGF-2), Peprotech, New Jersey, USA, #100-18C, Lot #0415571; rhFGF-acidic (FGF-1), Peprotech, New Jersey, USA, #100-17A, Lot #031207; hVEGF-A165 (ProQinase GmbH, Freiburg, Germany; 05.02.2010) were used for stimulation of HUVEC cells growth.
(§4) Test system: Endothelial cells from human umbilical vein (HUVEC) from pooled donors were stored frozen with 70% medium, 20% FCS, 10% DMSO at about 1×10^6 cells/ampoule. HUVEC cells, primary human umbilical vein endothelial cells (PromoCell, Heidelberg, Germany), were used after passage 3 to 4. Morphology of the cells are adherent, cobblestone-like growing as monolayer and were cultured in endothelial cell growth and basal medium (ECGM/ECBM, PromoCell). The subculture was split 1:3; every 3-5 days, seed out at ca. 1×10^4 cells/cm^2 and incubated at 37° C. with 5% CO2 with a doubling time 24-48 hours
(§5) Dilution of test compounds: 100× concentrated solutions (concerning to the final assay concentrations) of each test compound were prepared with the appropriate solvent (in DMSO or in water). These 100×compound solutions were further diluted in endothelial cell growth and basal medium (ECBM) 1:7.5 to get a 13.33× concentrated solution. 75 μl of the 13.33×solution was subsequently mixed with 25 μl of 40× concentrated stimulus (solved in ECBM), resulting in a 10×concentrated stimulus/compound mixture. This mixture (100 μl) was incubated for 30 min at 37° C. and then added to 900 μl gel, containing the HUVEC spheroids (resulting in the final assay concentration).
(§6) Test method: the experiments were pursued in modification of the originally published protocol (Korff and Augustin: J Cell Sci 112: 3249-58, 1999). In brief, spheroids were prepared as described (Korff and Augustin: J Cell Biol 143: 1341-52, 1998) by pipetting 400 HUVEC in a hanging drop on plastic dishes to allow overnight spheroid aggregation. 50 HUVEC spheroids were then seeded in 0.9 ml of a collagen gel and pipetted into individual wells of a 24 well plate to allow polymerization. The test compounds were preincubated with the growth factors (FGF-1, FGF-2 or VEGF-A final concentration 25 ng/mL) in a 10-fold concentrated solution and subsequently, 100 μl of this solution was added on top of the polymerized gel. All compounds were diluted in solvent (DMSO or water) as 100×stocks first (which means 100×stocks of each final assay concentration were prepared in solvent). Subsequently, these stocks were further diluted in medium (resulting in the 13.33×stocks of each final assay concentration) with final concentrations tested: 100, 50, 25, 12.5, 6.25, 3.13 and 1.56×10^−6 M). Plates were incubated at 37° C. for 24 hours and fixed by adding 4% PFA (Roth, Karlsruhe, Germany).
(§7) Quantification of growth factor inhibition: sprouting intensity of HUVEC spheroids treated with the growth factor and the inhibitors were quantitated by an image analysis system determining the cumulative sprout length per spheroid (CSL).

[4] = tested on: Human neutrophils; experiment: Inhibition of ROS production in human neutrophils (isoluminol chemiluminescence); type: cell-based; conditions: fMLP+TNF-α stimulated PMN; for inhibition at 0.3 µM / IC50: Homo sapiens, Neutrophil
Description: NADPH oxidase, located in the plasma membrane and in the membranes of specific granules, produces superoxide anions from which other ROS, such as hydrogen peroxide, singlet oxygen, hypochlorite, and active hydroxyl radicals. ROS are released into the surrounding medium or into a membrane-enclosed subcellular organelle. One quick and sensitive method for measuring the generation of these metabolites is chemiluminescence (CL). Isoluminol amplified CL technique, is very sensitive and widely used to study respiratory burst (mainly extracellular production of ROS) induced in neutrophils.
Human neutrophils were isolated from buffy coats which obtained from healthy donors. The isolated neutrophils (3×10^6/ml) were suspended in Hanks' Balanced Salt Solution (HBSS) with Calcium and Magnesium. Neutrophils were pre-incubated with the compounds at different concentrations (0.1, 0.3, 1, 3 and 10 μM) for 30 min at 37° C. The black 96-well cell culture plates were coated with human fibrinogen (0.25 mg/ml in PBS), and incubated overnight at 4° C. or 2 hr at 37° C. Then the plates were washed with endotoxin-free PBS. The neutrophils were incubated (priming) with TNF-α (20 ng/ml) for 10 minutes at 37° C. Thereupon the 75 μl of cell suspension and 75 μl (Isoluminol+HRP solution) were added to each well. The chemiluminescence was recorded (every 25 sec for 250 sec) after fMLP (1 μM) activation using a Multilabel Reader victor3 (Perkin Elmer, USA). Background values, defined as the mean chemiluminescent values of isoluminol diluted in HBSS, were subtracted from all readings (CPS, count per second). The assays were done in duplicate or triplicate.

[5] = biological target: T3, FGF-2 (Homo sapiens, UniProt P09038); experiment: FGF-2 induced sprouting of HUVEC, spheroid-based cellular angiogenesis assay; type: cell-based; conditions: FGF-2 25 ng/mL preincubated with compound, 24 h
T3 construct: purchased Peprotech 100-18C
T3 sequence (P09038 134-288): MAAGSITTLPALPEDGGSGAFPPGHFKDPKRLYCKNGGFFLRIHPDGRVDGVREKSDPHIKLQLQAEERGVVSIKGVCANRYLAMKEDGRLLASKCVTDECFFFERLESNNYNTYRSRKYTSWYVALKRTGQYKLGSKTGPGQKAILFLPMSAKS
Protocol: as §1, §2, §3, §4, §5, §6, §7

[6] = tested on: STZ-induced diabetes model; experiment: STZ-induced diabetic nephropathy, kidney disease and retinopathy model (28 days treatment)
Protocol: A total of 70 female CD-1 mice aged 5-7 weeks weighing approximately 25-30 g were used for the study. These were purchased from Charles River, UK and had 7 days acclimatization period. Animals were housed in IVC cages (up to 5 per cage) with individual mice identified by tail mark. All animals were allowed free access to a standard certified commercial diet and sanitised water during the study. The holding room was maintained under standard conditions: 18-24° C., 55-70% humidity and a 12 h light/dark cycle.
Mice were starved for 6 hours prior to injection. One week after completion of induction glucose levels were monitored and mice with levels less than 15 mml/L (280 mg/gL) were removed from the study as they had not developed the ideal severity of diabetes. Glucose levels were be monitored weekly and 5 weeks after STZ induction biochemical assessment of renal injury was carried out by measuring urine albumin and creatinine levels and confirming they were within the desired range. After successful completion of this stage animals were assigned to treatment groups.
Treatment continued for 4 weeks (28 days) with weekly measurement of blood glucose and urine albumin/creatinine. The study schedule is detailed below looking at weekly (week 5 to 9) blood glucose levels, urine albumin creatinie ratios, and terminal (week 9) blood chemistry and cytokines, kidney histology and eye-retinal leakage.
Urine Albumin: Creatinine (ALB: CRE): Urine was collected weekly and pooled for each treatment group.
ELISAs: At the end of the treatment period blood was collected and processed to serum. Serum levels of CRP, TGF-β, IL-6 and TNF-α were quantified using commercially available ELISA kits, results are shown in Table 56.

[7] = day 28 of treatment (week 9), 15 mg/kg IV, Captopril 50 mg/kg PO
[8] = day 28 of treatment (week 9), serum, 15 mg/kg IV, Captopril 50 mg/kg PO

T1 sequence (P35968 20-1356): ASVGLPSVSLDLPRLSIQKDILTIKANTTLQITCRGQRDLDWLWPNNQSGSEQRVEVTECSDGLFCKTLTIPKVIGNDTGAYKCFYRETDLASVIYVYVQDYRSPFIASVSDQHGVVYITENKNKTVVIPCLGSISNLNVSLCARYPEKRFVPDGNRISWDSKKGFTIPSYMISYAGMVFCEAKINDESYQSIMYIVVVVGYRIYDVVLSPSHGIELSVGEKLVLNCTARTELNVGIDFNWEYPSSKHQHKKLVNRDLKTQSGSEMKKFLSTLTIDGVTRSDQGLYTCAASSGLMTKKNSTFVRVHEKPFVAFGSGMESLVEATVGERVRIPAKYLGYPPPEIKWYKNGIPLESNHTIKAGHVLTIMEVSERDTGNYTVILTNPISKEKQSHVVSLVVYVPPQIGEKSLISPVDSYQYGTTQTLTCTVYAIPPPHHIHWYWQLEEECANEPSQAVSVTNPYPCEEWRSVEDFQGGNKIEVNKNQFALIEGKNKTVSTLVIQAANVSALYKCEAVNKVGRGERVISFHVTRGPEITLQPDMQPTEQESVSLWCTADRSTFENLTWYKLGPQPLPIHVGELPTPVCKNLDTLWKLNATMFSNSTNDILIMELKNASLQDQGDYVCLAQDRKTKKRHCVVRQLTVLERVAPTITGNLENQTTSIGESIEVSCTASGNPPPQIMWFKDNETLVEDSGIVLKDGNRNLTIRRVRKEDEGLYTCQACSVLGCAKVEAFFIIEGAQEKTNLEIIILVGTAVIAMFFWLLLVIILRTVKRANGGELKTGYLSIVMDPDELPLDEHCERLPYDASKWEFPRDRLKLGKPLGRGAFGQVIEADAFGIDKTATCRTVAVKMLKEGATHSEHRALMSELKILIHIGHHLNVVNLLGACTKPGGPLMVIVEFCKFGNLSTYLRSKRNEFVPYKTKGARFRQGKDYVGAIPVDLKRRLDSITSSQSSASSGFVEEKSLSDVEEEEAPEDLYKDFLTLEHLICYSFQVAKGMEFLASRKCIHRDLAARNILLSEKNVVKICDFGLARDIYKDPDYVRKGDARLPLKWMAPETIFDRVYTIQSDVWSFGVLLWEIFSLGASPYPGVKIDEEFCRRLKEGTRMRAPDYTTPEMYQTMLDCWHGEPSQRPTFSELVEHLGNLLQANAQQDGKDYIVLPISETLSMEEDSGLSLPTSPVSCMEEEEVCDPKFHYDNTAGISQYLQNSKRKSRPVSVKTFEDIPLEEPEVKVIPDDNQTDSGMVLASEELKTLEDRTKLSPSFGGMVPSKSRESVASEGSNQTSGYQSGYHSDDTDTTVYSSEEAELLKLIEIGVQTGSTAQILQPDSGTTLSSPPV

| IC50 [1] | IC50 [3] | IC50 [5] | SMILES | Neutrophil adhesion inhibition [2] | inhibition at 0.3 µM ([4]; 0.3 μM) | other results |
| --- | --- | --- | --- | --- | --- | --- |
| 0.65 µM |  |  | CCOC(=O)Cc1cc(O)c(C(=O)Nc2cc(NC(=O)c3cc(O)c(CC(=O)OCC)cc3O)cc(C(=O)OC)c2)cc1O [IIIb-010a-E3, methyl 3,5-bis(4-(ethoxycarbonylmethyl)-2,5-dihydroxybenzamido)benzoate] | 0% |  |  |
| ≥ 100 µM | 14 µM |  | O=C(O)c1cc(O)c(C(=O)Nc2cccc(S(=O)(=O)O)c2)cc1O [Ia-002c, 2,5-dihydroxy-4-(3-sulfophenylaminocarbonyl)benzoic acid] | 1.87% | 38.9% | IC50 [4]: 0.405 µM |
|  | 19 µM | 131 µM | O=C(O)c1cccc(NC(=O)c2cc(O)cc(C(=O)O)c2O)c1 [IIa-002a, 3-(3-carboxyphenylaminocarbonyl)-2,5-dihydroxybenzoic acid] | 17.39% | 43.3% | IC50 [4]: 0.299 µM |
|  |  | 164 µM | CCOC(=O)Cc1ccccc1NC(=O)c1cc(O)cc(C(=O)OCC)c1O [IIa-034a-E2, ethyl 3-(2-(ethoxycarbonylmethyl)phenylaminocarbonyl)-2,5-dihydroxybenzoate] | 11.86% | 68.7% |  |
|  |  | 35 µM | O=C(O)c1cc(O)c(CNCc2cc(O)c(C(=O)O)cc2O)cc1O [IIIc-056a, Bis(4-carboxy-2,5-dihydroxyphenylmethyl)amine] | 35% | 90.1% |  |
|  |  |  | C[C@H](CS)C(=O)N1CCC[C@H]1C(=O)O [Captopril, reference compound] |  |  | Serum CRP ([6]; 28 days of treatment, vs vehicle induced controls): significantly reduced; Mean day 0 blood glucose Concentration (mmol/L) (SD) ([6]; day 0, 15 mg/kg IV, Captopril 50 mg/kg PO): 23.7 (6.9) mmol/L; Mean day 28 blood glucose Concentration (mmol/L) (SD) ([6]; day 28, 15 mg/kg IV, Captopril 50 mg/kg PO): 32.2 (2.3) mmol/L; Blood BUN [6, 7]: 28.5 ± 7.6; Disease Score (kidney, H&E) [6, 7]: 6 ± 1; Eye area (retinal flatmount area covered by vasculature) [6, 7]: 11.8 ± 1.4; Trichrome staining (Kidney fibrosis) [6, 7]: 1.98 ± 0.47; Blood CRP [6, 8]: 4534 ± 821; Blood IL-6 [6, 8]: 125.56 ± 15.75; Blood TGF-beta [6, 8]: 14.55 ± 2.86; Blood TNF-alpha [6, 8]: 415 ± 51.7; Urine albumine creatinine ratio (ALB:CRE) ([6]; day 28 of treatment (week 9), urine pooled per group, 15 mg/kg IV, Captopril 50 mg/kg PO): 24.40 |
|  |  | 71 µM | O=C(O)c1cc(O)cc(C(=O)Nc2ccccc2S(=O)(=O)O)c1O [IIa-001c, 2,5-dihydroxy-3-(2-sulfophenylaminocarbonyl)benzoic acid] | 43.53% | 72.6% |  |
| ≥ 100 µM |  | 91 µM | O=C(O)Cc1ccc(NC(=O)c2cc(O)c(C(=O)O)cc2O)cc1 [Ia-032a, 4-(4-(carboxymethyl)phenylaminocarbonyl)-2,5-dihydroxybenzoic acid] |  |  |  |
|  | 12 µM | 34 µM | O=C(O)c1ccc(NC(=O)c2cc(O)c(C(=O)O)cc2O)cc1 [Ia-003a, 4-(4-carboxyphenyl-aminocarbonyl)-2,5-dihydroxybenzoic acid] | 39.1% | 44.4% | IC50 [4]: 0.414 µM |
| 0.34 µM |  |  | CCOC(=O)c1cc(O)c(CN(Cc2cc(O)c(C(=O)OCC)cc2O)Cc2cc(O)c(C(=O)OCC)cc2O)cc1O [IIIc-061a-E3] | 10.4% |  |  |
| 0.4 µM | 35 µM |  | O=C(O)c1cc(O)c(C(=O)Nc2ccc(S(=O)(=O)O)cc2)cc1O [Ia-003c, 2,5-dihydroxy-4-(4-sulfophenylaminocarbonyl)benzoic acid] |  |  |  |
| 0.33 µM | 115 µM |  | CCOC(=O)c1cc(O)c(-c2nc3c(C(=O)OC)cccc3[nH]2)cc1O [Id-030a-E2] | 43% |  | PMN ROS inhibition at 0.3 μM ([4]; 0.3 μM): 0% |
|  |  | 125 µM | O=C(O)c1cc(NC(=O)c2cc(O)cc(C(=O)O)c2O)cc(C(=O)O)c1 [IIa-015a, 5-(3-carboxy-2,5-dihydroxybenzamido)isophthalic acid] |  |  |  |
| 0.32 µM | ≥ 200 µM |  | CCOC(=O)Cc1cc(O)c(C(=O)Nc2ccccc2-c2nnn[nH]2)cc1O [IIIa-001aTz-E1, ethyl (4-(2-(1H-tetrazol-5-yl)phenylaminocarbonyl)-2,5-dihydroxyphenyl)acetate] | 91.76% | 70% |  |

| SMILES | IC50 [1] | IC50 [3] | IC50 [5] | Neutrophil adhesion inhibition [2] | inhibition at 0.3 µM ([4]; 0.3 μM) | other results |
| --- | --- | --- | --- | --- | --- | --- |
| CCOC(=O)c1cc(NC(=O)c2cc(OC(C)=O)c(C(=O)OCC)cc2OC(C)=O)cc(NC(=O)c2cc(OC(C)=O)c(C(=O)OCC)cc2OC(C)=O)c1 [Ib-010a-E3-A4, ethyl 3,5-bis(2,5-diacetoxy-4-ethoxycarbonylbenzoylamino)benzoate] | 0.54 µM | ≥ 200 µM |  | 96% | 54.9% | IC50 [4]: 1.49 µM |

— patent US20230150951A1, “2,5- OR 2,6-DISUBSTITUTED HYDROQUINONE DERIVATIVES WITH AT LEAST ONE CARBOXY, SULFO OR AMIDO GROUP USEFUL AS MEDICAMENTS” (OM PHARMA SA, priority 2020, published 2023)
